Laboratory results published in the supplement of paper PMC10331698.
± gives the standard deviation of the averaged measurements.

Columns and labels:
[1] = compound: OCC(F)(F)C(F)(F)C(F)(F)C(F)(F)C(F)(F)C(F)(F)F [6:1 Fluorotelomer alcohol]; assay: level (log10 ratio to DMSO vehicle control); higher = higher biomarker level / cell amount than vehicle control; conditions: in DMSO
Protocol: (§1)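 BioMAP Diversity Plus panel of 12 human primary cell co-culture systems (3C, 4H, LPS, SAg, BT, BF4T, BE3C, CASM3C, HDF3CGF, KF3CT, MyoF, Mphg). Compounds were added 1 h before stimulation and left for 24 h (MyoF 48 h; BT 72 h for soluble read-outs or 6 d for IgG). Biomarkers were read by ELISA, cytotoxicity by SRB, PBMC viability and proliferation by Alamar Blue. Each well value was divided by the mean of 8 DMSO control wells on the same plate and log10 transformed; duplicate blinded samples were tested at 4 concentrations.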

[2] = compound: O=C(O)C(F)(F)C(F)(F)C(F)(F)C(F)(F)C(F)(F)C(F)(F)C(F)(F)F [Ammonium perfluorooctanoate]; assay: as above; conditions: in DMSO
Protocol: as §1

Test System | level (log10) ([1]; 6700 nM) | level (log10) ([1]; 20000 nM) | level (log10) ([1]; 60000 nM) | level (log10) ([2]; 6700 nM) | level (log10) ([2]; 20000 nM) | level (log10) ([2]; 60000 nM)
KF3CT:CCL2/MCP-1 | 0.012 ± 0.0014 | 0.009 ± 0.0099 | -0.007 ± 0.0085 | 0.011 ± 0.024 | -0.0245 ± 0.036 | -0.119 ± 0.0064
lMphg:sIL-10 | 0.0065 ± 0.073 | -0.0215 ± 0.013 | -0.023 ± 0.0071 | -0.0655 ± 0.049 | -0.042 ± 0.021 | -0.16 ± 0.028
HDF3CGF:SRB | 0.0015 ± 0.067 | -0.003 ± 0.025 | -0.139 ± 0.13 | 0.057 ± 0.055 | 0.078 ± 0.0099 | 0.0945 ± 0.047
CASM3C:CXCL8/IL-8 | 0.0005 ± 0.015 | 0.004 ± 0.018 | 0 ± 0.0014 | 0.005 ± 0.0099 | 0.0085 ± 0.013 | 0.049 ± 0.033
lMphg:SRB-Mphg | -0.0015 ± 0.0064 | -0.02 ± 0.014 | -0.0595 ± 0.054 | -0.0045 ± 0.0092 | 0.006 ± 0.0057 | -0.007 ± 0.02
KF3CT:CD54/ICAM-1 | 0.001 ± 0.0014 | -0.005 ± 0.0071 | 0.016 ± 0.013 | 0.004 ± 0.016 | -0.0165 ± 0.018 | -0.03 ± 0.023
BE3C:uPA | -0.0055 ± 0.0021 | -0.005 ± 0.013 | 0.001 ± 0.0014 | 0.002 ± 0.0071 | -0.002 ± 0.0042 | 0.018 ± 0.0085
MyoF:TIMP-1 | 0.0125 ± 0.025 | 0.0145 ± 0.019 | 0.03 ± 0.013 | 0.004 ± 0.0085 | 0.012 ± 0.02 | 0.01 ± 0.033
CASM3C:Proliferation | 0.02 ± 0.037 | 0.0125 ± 0.0078 | -0.664 ± 0.24 | 0.0125 ± 0.018 | -0.007 ± 0.045 | -0.021 ± 0.0071
MyoF:Decorin | 0.004 ± 0.0071 | 0.0075 ± 0.0092 | 0.0005 ± 0.023 | 0.0055 ± 0.0035 | 0.0075 ± 0.00071 | -0.0355 ± 0.057
HDF3CGF:PAI-I | 0.006 ± 0.018 | 0.0105 ± 0.026 | -0.103 ± 0.18 | 0.0885 ± 0.03 | 0.0995 ± 0.044 | 0.017 ± 0.044
CASM3C:M-CSF | -0.013 ± 0.0042 | -0.013 ± 0.037 | -0.0855 ± 0.023 | -0.0045 ± 0.0021 | 0.011 ± 0.028 | 0.015 ± 0.05
MyoF:Collagen IV | -0.013 ± 0.0014 | -0.0335 ± 0.016 | 0.012 ± 0.02 | 0.06 ± 0.0099 | 0.0745 ± 0.0035 | 0.225 ± 0.05
HDF3CGF:CD106/VCAM-1 | -0.0135 ± 0.013 | 0.004 ± 0.044 | -0.681 ± 0.28 | -0.0315 ± 0.011 | -0.0065 ± 0.023 | -0.037 ± 0.0071
lMphg:SRB | -0.001 ± 0.0099 | -0.001 ± 0.0028 | -0.0005 ± 0.0092 | -0.0125 ± 0.0035 | -0.004 ± 0.0028 | 0.0015 ± 0.005
CASM3C:CXCL9/MIG | -0.003 ± 0.0014 | -0.0085 ± 0.0021 | -0.0305 ± 0.046 | -0.001 ± 0.016 | 0.017 ± 0.017 | 0.0225 ± 0.028
CASM3C:CD87/uPAR | -0.004 ± 0.0071 | -0.0245 ± 0.00071 | -0.026 ± 0.035 | 0.003 ± 0.03 | 0.008 ± 0.0028 | 0.0045 ± 0.023
HDF3CGF:CXCL8/IL-8 | 0.0005 ± 0.0092 | 0.001 ± 0.013 | -0.046 ± 0.052 | -0.0025 ± 0.005 | 0.002 ± 0.0042 | 0.003
KF3CT:CXCL10/IP-10 | 0.0155 ± 0.0035 | 0.0055 ± 0.015 | 0.011 | -0.0025 ± 0.00071 | -0.0045 ± 0.005 | -0.007 ± 0.0014
BE3C:MMP-1 | -0.0115 ± 0.016 | 0 ± 0.0014 | 0.042 ± 0.013 | 0.034 ± 0.018 | 0.113 ± 0.014 | 0.283 ± 0.041
